Assay results taken from patent publication US8044057B2, “Methods for suppressing an immune response or treating a proliferative disorder” (The United States of America as represented by the …, priority 2003, dated 2011).

How the values were obtained:
[1] = biological target: T1, recombinant CK2 (Homo sapiens, UniProt P68400); test: Casein kinase 2 activity kit, 32P incorporation into substrate peptide; assay type: biochemical
T1 construct: purchased Upstate Biotechnology 17-132 (number of the activity kit, not of the enzyme)
Procedure: FIGS. 5A-5B are bar graphs showing that LY303511 inhibits the cell cycle by causing combined G1 and G2/M arrest and that LY303511 inhibits CK2 activity. For the data shown in FIG. 5A, PASM cells were cultured in medium with FBS for 48 hours before the addition of 0-100 μM LY303511 without or with raparnycin, 400 ng/ml, for 24 hours. Cells were then harvested and incubated with propidium iodide for 2 hours before counting using a Becton-Dickson FACSCalibur. Data are the means (±SEM) of percentages of cells in G1, S, or G2/M phase of the cell cycle in three experiments with duplicate assays. *p<0.05 vs. DMSO control, or †p<0.05 vs. 10 μM LY303511, by Student's t—test. FIG. 5B is a bar graph showing that LY303511 or LY294002 inhibits CK2 in vitro. As per the manufacturer (Upstate Biotechnologies), 0 or 100 ng of recombinant CK2 were incubated with CK2 substrate peptide and ^32P-γ-ATP for 10 min with 1% DMSO or inhibitors as indicated. Data are the means of values for samples with inhibitors expressed as percentage of that for control, which was (mean±SEM) 0.2±0.03 pmol phosphate/100 ng protein/10 min. Data are from three experiments performed in duplicate. *p<0.05 by Student's t-test when compared to DMSO control.
One specific assay for casein kinase 2 activity is available commercially as a kit from Upstate Biotechnology (New York). The assay is based on phosphorylation of a specific substrate (CK-2 substrate peptide) using the transfer of the gamma-phosphate of ^32P-ATP by casein kinase 2 during a 10 minute incubation at 30° C. The phosphorylated substrate is then separated from the residual ^32P-ATP using P81 phosphocellulose paper, and quantified by scintillation counting.
Casein kinase 2 (CK2) activity (counts per rninute) was measured using a casein kinase 2 activity kit (Upstate Biotechnology catalogue number 17-132) by incubating recombinant 100 ng CK2, magnesium/ATP cocktail (10 mcCi ^32P-garnma-ATP, 0.675 micromoles MgCl2, 4.5 nmoles ATP), and 10 micromoles peptide substrate (arnino acid sequence RRRDDDSDDD (SEQ ID NO: 1) in 50 mcl assay buffer without or with the indicated concentrations of DMSO (1%), LY294002, LY303511, or rapamycin for 10 minutes at 30° C. Assays were stopped with 20 mcl of 40% trichloroacetic acid, and 25 mcl were spotted on P81 phosphocellulose paper squares before washing 3 times with 0.75% phosphoric acid, and once with acetone. 32P incorporation on the substrate peptide was detected by counting the phosphocellulose squares in 5 ml scintillation fluid using a Packard 100 Tri-Carb liquid scintillation counter.
Measurement of casein kinase 2 (CK2) activity: CK2 activity (counts per minute) was measured using a CK2 activity kit (Upstate, Charlottesville, Va.) by incubating 100 ng of recombinant CK2, rnagnesium/ATP cocktail (10 μCi ^32P-gamma-ATP, 0.675 μmol MgCl2, 4.5 nmol ATP), and 10 μmol peptide substrate (amino acid sequence RRRDDDSDDD) in 50 μl assay buffer (20 mM MOPS, pH 7.2, 5 mM EGTA, 25 mM β-glycerol phosphate, 1 mM sodium orthovanadate, 1 mM dithiothreitol) without or with the indicated concentrations of LY294002, LY303511, wortmannin or rapamycin in 1% DMSO for 10 min at 30° C. Assays were stopped with 20 μl of 40% trichloroacetic acid, and samples (25 μl) of supernatant were applied to P81 phosphocellulose paper squares, which were then washed three times with 0.75% phosphoric acid, and once with acetone. ^32P in the substrate peptide was quantified using a Packard 100 Tri-Carb liquid scintillation counter on phosphocellulose squares in 5 ml of scintillation fluid. Activity is expressed as pmol phosphate incorporated per 10 minutes. CK2 activity measured in the presence of inhibitors was divided by that measured for the DMSO control (=100% control).

[2] = tested on: A549 cells; test: Western blot of cell cycle inhibitors, cyclins and phospho-Rb in A549 cells; assay type: cell-based, human
Procedure: FIGS. 3A-3B are bar graphs and digital images showing the effect of LY303511 on the levels of cell cycle inhibitors and cyclins. A549 cells (˜1×10^6 cells per 100-mm dish) were grown for 48 h before addition of 0.1% DMSO, 100 μM LY303511, or rapamycin, 200 ng/ml, for 0, 12, or 24 hours. At the indicated times, cells were homogenized and stored at −80° C. For Western blot analyses, samples (70 μg) of lysate proteins separated by SDS-PAGE were transferred to nitrocellulose membranes and reacted with the following antibodies: A. Phospho-S6K T389 (pS6K), p27 Kip1, p21 Cip1, phospho-Rb S807/S811, or B. Cyclin A, Cyclin B, Cyclin D, and Cyclin E. All blots are from one experiment. Data below (relative density) are means of densitometric values from duplicate dishes treated with inhibitors for 24 hours relative to DMSO control=1.0 in three experiments. *p<0.05 vs. DMSO control by Student's t-test.
In another experiment, A549 cells were grown to sub-confluence in serum-containing media, and incubated with a vehicle, 100 mcM LY303511, or rapamycin, 200 ng/ml for 0, 12, or 24 hours. Cells were lysed, and proteins separated by SDS-PAGE before transfer to nitrocellulose membranes. Membranes were incubated with antibodies against p27Kip1, p21 Cip1 orphospho-P70 S6 kinase T389.

[3] = tested on: STAT1; test: STAT1-driven luciferase reporter (GAS-luc) in A549 cells; assay type: cell-based, human; conditions: 100 mcM LY303511 1 hour before LPS/IFN-γ for 6 hours
Procedure: (§1) A549 cells were transiently transfected with a reporter vector expressing firefly luciferase driven by STAT1 (GAS-luc, Clontech), and incubated without or with 100 mcM LY303511, rapamycin, 200 ng/ml, or both, for 1 hour before addition of LPS/IFN-γ for 6 hours. STAT1 activity (luciferase activity) was measured in cell lysates (RLU). The data presented are triplicate samples ±SEM, and are representative of two independent experiments.
as §1, with “presented in FIG. 8” for “presented”, “samples±SEM,” for “samples ±SEM,”

[4] = 100 mcM LY303511 or rapamycin 200 ng/ml, 12 and 24 hours

T1 sequence (P68400 whole entry): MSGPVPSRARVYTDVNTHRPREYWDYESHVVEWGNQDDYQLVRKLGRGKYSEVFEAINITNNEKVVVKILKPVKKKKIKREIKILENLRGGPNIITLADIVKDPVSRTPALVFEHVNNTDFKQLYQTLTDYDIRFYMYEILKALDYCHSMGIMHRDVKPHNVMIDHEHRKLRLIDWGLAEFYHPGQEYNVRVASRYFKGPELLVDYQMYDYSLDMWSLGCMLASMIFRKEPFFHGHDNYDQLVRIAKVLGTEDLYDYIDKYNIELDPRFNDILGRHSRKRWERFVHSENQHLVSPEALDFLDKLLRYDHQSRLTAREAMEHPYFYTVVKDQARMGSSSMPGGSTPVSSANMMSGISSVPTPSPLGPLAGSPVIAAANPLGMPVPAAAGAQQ
T1 sequence (P67870 2-215 partner limits assumed): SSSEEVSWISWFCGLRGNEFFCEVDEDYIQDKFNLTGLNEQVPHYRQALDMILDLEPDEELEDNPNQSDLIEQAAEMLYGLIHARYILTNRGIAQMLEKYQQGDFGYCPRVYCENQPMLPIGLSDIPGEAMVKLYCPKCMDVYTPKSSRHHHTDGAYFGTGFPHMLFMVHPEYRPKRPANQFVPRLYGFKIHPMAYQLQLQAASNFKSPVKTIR

In the case of `O=c1cc(N2CCNCC2)oc2c(-c3ccccc3)cccc12` [LY303511, 2-(4-piperazinyl)-8-phenyl-4H-1-benzopyran-4-one], the CK2 activity ([1]; 100 ng recombinant CK2, 10 min at 30° C.) is reported as “concentration-dependent inhibition of CK2 activity”, the “preferential inhibition as compared to PI3K” value ([1]; P70 S6 kinase and casein kinase 2 versus PI3K) is reported as “preferentially inhibits P70 S6 kinase and casein kinase 2 as compared to PI3K” and the IC50 ([1]; recombinant CK2 in vitro, read-out: IC50 for casein kinase 2) is reported as 10 to 100 µM. The “phosphorylation of Rb (S807/S811)” value ([2]; 100 mcM LY303511) was “reduced the phosphorylation of Rb”, the “levels of cyclin A and B” value ([2]; 100 mcM LY303511 or rapamycin 200 ng/ml) was “decreased levels of cyclin A and B” and the “p21 Cip1 level” value [2, 4] was “significant increase in p21 Cip1”. The p27Kip1 level [2, 4] was “accumulation of p27Kip1” and the “STAT1 activation (luciferase activity)” value [3] was “inhibited STAT1 activation”.
